Test results: ChEMBL document CHEMBL5365473, “Novel Sulfonylurea-Based NLRP3 Inflammasome Inhibitor for Efficient Treatment of Nonalcoholic Steatohepatitis, Endotoxic Shock, and Colitis” (J Med Chem, 2023)
Activity calls are given as the source filed them. The rule behind the calls is not given here.

Key:
THP-1 [1] = test: Effect on mitochondrial function in PMA-induced differentiated human THP-1 cells assessed as effect on extracellular ATP-induced decrease in mitochondrial membrane potential at 30 nM pretreated with compound for 24 hrs followed by stimulation with LPS for 4.5 hrs and ATP for 1 hr by MitoTracker red dye based confocal microscopy; assay type: functional, cell-based; conditions: time 29.5 hrs
Mus musculus [2] = test: Antiinflammatory activity against MCD diet-induced NASH C57BL/6 mouse model assessed as reduction in immune cell infiltration by measuring reduction in CD45-positive hepatic cells at 40 mg/kg, po administered via gavage for 5 weeks by immunofluorescence staining based analysis; assay type: functional, organism-based
[3] = Drug uptake in Sprague-Dawley rat brain at 50 mg/kg, po measured for 24 hrs by LC-MS/MS analysis; assay type: ADME, organism-based; conditions: in vivo
[4] = Drug uptake in Sprague-Dawley rat spleen at 50 mg/kg, po measured for 24 hrs by LC-MS/MS analysis; assay type: ADME, organism-based; conditions: in vivo
[5] = Toxicity against female ICR mouse assessed as effect on plasma ALT level at 200 to 500 mg/kg administered via gavage for 12 days; assay type: organism-based; conditions: in vivo, po, 288 h, dose 200-500 mg/kg, time 12 day
Mus musculus [6] = test: Antiinflammatory activity against MCD diet-induced NASH C57BL/6 mouse model assessed as reduction in balloon dilatation in liver at 40 mg/kg, po administered via gavage for 5 weeks by Sirius red staining based analysis; assay type: functional, organism-based
Mus musculus [7] = test: Antiinflammatory activity against LPS-induced lethal septic shock C57BL/6 mouse model assessed as reduction in serum IL-1 beta level at 20 to 40 mg/kg, ip administered for 1 hr prior to LPS challenge and measured after 2.5 hrs by ELISA; assay type: functional, organism-based; conditions: dose 20-40 mg/kg, time 3.5 hrs
[8] = Drug uptake in Sprague-Dawley rat kidney at 50 mg/kg, po measured for 24 hrs by LC-MS/MS analysis; assay type: ADME, organism-based; conditions: in vivo
Mus musculus [9] = test: Antiinflammatory activity against MCD diet-induced NASH C57BL/6 mouse model assessed as reduction in liver steatosis at 40 mg/kg, po administered via gavage for 5 weeks by Sirius red staining based analysis; assay type: functional, organism-based
[10] = Drug uptake in Sprague-Dawley rat muscle at 50 mg/kg, po measured for 24 hrs by LC-MS/MS analysis; assay type: ADME, organism-based, Muscle tissue; conditions: in vivo
THP-1 [11] = test: Effect on ROS production in PMA-induced differentiated human THP-1 cells at 30 nM pretreated with compound for 24 hrs followed by stimulation with LPS for 4.5 hrs and ATP for 1 hr by MitoSOX dye based confocal microscopy; assay type: functional, cell-based; conditions: time 29.5 hrs
Mus musculus [12] = test: Antiinflammatory activity against DSS-induced ulcerative colitis C57BL/6 mouse assessed as reduction in crypt necrosis in colon at 10 mg/kg, ip administered for 9 days and measured on day 10 by H and E staining based analysis; assay type: functional, organism-based; conditions: time 10.0 day
L02 = test: Cytotoxicity against human HL7702 cells assessed as reduction in cell viability at 500 uM measured after 24 hrs by CCK8 assay; assay type: toxicity, cell-based; conditions: l02, 24 h
[13] = Half life in ICR mouse at 5 mg/kg, iv by LC-MS/MS analysis; assay type: ADME, organism-based; conditions: in vivo
Mus musculus [14] = test: Antiinflammatory activity against MCD diet-induced NASH C57BL/6 mouse model assessed as reduction in liver steatosis at 40 mg/kg, po administered via gavage for 5 weeks by H and E staining based analysis; assay type: functional, organism-based
[15] = target: NACHT, LRR and PYD domains-containing protein 3 (Mus musculus) (UniProt Q8R4B8); test: Inhibition of NLRP3 inflammasome in mouse J774.A1 cells assessed as inhibition of IL-1 beta secretion at 30 nM primed with LPS for 4.5 hrs followed by incubation with compound for 24 hrs and later stimulated with nigericin for 1 hr by immunoblot analysis; assay type: cell-based; conditions: time 25.0 hrs
[16] = MRT (0 to infinity) in ICR mouse at 5 mg/kg, iv by LC-MS/MS analysis; assay type: ADME, organism-based; conditions: in vivo
J774.A1 [17] = test: Effect on pro-IL-1 beta protein expression in mouse J774.A1 cells at 3 to 30 nM primed with LPS for 4.5 hrs followed by incubation with compound for 2.5 hrs and later stimulated with ATP for 30 mins by immunoblot analysis; assay type: functional, cell-based; conditions: dose 3-30 nM, time 3.0 hrs
[18] = Apparent volume of distribution in ICR mouse at 5 mg/kg, iv by LC-MS/MS analysis; assay type: ADME, organism-based; conditions: in vivo, read-out: Vz
[19] = Toxicity against male ICR mouse assessed as effect on plasma creatinine level at 200 to 500 mg/kg administered via gavage for 12 days; assay type: organism-based; conditions: in vivo, po, 288 h, dose 200-500 mg/kg, time 12 day
[20] = target: T1, Interferon-inducible protein AIM2 (Mus musculus) (UniProt Q91VJ1); test: Inhibition of AIM2 inflammasome in mouse J774.A1 cells assessed as inhibition of caspase-1 activation at 30 nM primed with LPS for 4.5 hrs followed by incubation with compound for 24 hrs and later stimulated with poly (dA:dT) for 6 hrs by immunoblot analysis; assay type: cell-based; conditions: time 30.0 hrs
T1 sequence (whole entry): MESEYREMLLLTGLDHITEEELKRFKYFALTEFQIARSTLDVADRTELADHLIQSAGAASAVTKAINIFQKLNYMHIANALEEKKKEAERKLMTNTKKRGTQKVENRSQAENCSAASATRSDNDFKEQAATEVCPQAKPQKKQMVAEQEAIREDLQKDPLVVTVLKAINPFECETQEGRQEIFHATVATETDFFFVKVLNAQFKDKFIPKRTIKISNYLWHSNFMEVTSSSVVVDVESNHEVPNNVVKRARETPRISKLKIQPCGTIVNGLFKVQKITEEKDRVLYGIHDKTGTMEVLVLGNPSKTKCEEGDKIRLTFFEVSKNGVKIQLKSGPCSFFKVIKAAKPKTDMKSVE

J774.A1 [21] = test: Effect on NLRP3 protein expression in mouse J774.A1 cells at 3 to 30 nM primed with LPS for 4.5 hrs followed by incubation with compound for 2.5 hrs and later stimulated with ATP for 30 mins by immunoblot analysis; assay type: functional, cell-based; conditions: dose 3-30 nM, time 3.0 hrs
[22] = Toxicity against female ICR mouse assessed as effect on heart weight at 200 to 500 mg/kg administered via gavage for 12 days; assay type: organism-based; conditions: in vivo, po, 288 h, dose 200-500 mg/kg, time 12 day
[23] = target: NACHT, LRR and PYD domains-containing protein 3 (Homo sapiens) (UniProt Q96P20); test: Inhibition of NLRP3 inflammasome in PMA-induced differentiated human THP-1 cells assessed as inhibition of caspase-1 activation primed with LPS for 4.5 hrs followed by incubation with compound for 2.5 hrs and later stimulated with ATP for 1 hr by immunoblot analysis; assay type: cell-based; conditions: dose 3-30 nM, time 3.5 hrs
Hepatocyte = test: Cytotoxicity against mouse primary hepatic cells assessed as reduction in cell viability at 200 uM measured after 24 hrs by CCK8 assay; assay type: toxicity, cell-based; conditions: hepatocytes
[24] = Toxicity against male ICR mouse assessed as effect on plasma ALT level at 200 to 500 mg/kg administered via gavage for 12 days; assay type: organism-based; conditions: in vivo, po, 288 h, dose 200-500 mg/kg, time 12 day
[25] = Toxicity against female ICR mouse assessed as effect on ratio of plasma AST to ALT level at 200 to 500 mg/kg administered via gavage for 12 days; assay type: organism-based; conditions: in vivo, po, 288 h, dose 200-500 mg/kg, time 12 day
[26] = MRT (0 to infinity) in ICR mouse at 10 mg/kg, po by LC-MS/MS analysis; assay type: ADME, organism-based; conditions: in vivo
Mus musculus [27] = test: Antiinflammatory activity against MCD diet-induced NASH C57BL/6 mouse model assessed as reduction in liver fibrosis at 40 mg/kg, po administered via gavage for 5 weeks by Masson's trichrome staining based analysis; assay type: functional, organism-based

NACHT, LRR and PYD domains-containing protein 3 (Homo sapiens), sequence (Q96P20 whole entry, the tested form may be a part): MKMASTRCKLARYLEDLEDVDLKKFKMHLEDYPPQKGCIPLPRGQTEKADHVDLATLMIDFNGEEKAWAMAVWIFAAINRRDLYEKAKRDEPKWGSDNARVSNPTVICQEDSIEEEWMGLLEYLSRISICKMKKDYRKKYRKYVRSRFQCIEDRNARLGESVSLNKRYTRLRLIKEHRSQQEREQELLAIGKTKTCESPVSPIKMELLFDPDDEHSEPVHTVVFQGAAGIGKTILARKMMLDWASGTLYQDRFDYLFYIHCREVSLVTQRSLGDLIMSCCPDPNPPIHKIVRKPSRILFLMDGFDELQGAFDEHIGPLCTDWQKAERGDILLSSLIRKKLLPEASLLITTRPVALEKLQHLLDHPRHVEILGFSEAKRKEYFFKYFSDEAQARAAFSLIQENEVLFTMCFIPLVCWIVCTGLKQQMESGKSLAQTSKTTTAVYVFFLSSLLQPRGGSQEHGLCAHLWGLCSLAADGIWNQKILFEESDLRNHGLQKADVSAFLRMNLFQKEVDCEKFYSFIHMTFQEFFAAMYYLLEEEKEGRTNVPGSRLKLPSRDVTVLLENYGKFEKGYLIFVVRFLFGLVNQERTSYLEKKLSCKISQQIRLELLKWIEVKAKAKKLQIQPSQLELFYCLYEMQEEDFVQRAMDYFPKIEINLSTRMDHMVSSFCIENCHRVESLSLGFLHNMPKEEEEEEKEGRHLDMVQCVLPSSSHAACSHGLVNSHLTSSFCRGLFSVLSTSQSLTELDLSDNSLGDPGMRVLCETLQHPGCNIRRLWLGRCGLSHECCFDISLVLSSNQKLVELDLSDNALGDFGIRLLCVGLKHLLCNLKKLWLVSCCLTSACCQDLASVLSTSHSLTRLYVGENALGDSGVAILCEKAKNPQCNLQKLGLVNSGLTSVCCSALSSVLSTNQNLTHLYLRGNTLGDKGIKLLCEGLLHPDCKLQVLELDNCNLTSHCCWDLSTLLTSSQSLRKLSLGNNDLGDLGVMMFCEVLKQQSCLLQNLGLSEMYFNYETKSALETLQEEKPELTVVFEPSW
NACHT, LRR and PYD domains-containing protein 3 (Mus musculus), sequence (Q8R4B8 whole entry, the tested form may be a part): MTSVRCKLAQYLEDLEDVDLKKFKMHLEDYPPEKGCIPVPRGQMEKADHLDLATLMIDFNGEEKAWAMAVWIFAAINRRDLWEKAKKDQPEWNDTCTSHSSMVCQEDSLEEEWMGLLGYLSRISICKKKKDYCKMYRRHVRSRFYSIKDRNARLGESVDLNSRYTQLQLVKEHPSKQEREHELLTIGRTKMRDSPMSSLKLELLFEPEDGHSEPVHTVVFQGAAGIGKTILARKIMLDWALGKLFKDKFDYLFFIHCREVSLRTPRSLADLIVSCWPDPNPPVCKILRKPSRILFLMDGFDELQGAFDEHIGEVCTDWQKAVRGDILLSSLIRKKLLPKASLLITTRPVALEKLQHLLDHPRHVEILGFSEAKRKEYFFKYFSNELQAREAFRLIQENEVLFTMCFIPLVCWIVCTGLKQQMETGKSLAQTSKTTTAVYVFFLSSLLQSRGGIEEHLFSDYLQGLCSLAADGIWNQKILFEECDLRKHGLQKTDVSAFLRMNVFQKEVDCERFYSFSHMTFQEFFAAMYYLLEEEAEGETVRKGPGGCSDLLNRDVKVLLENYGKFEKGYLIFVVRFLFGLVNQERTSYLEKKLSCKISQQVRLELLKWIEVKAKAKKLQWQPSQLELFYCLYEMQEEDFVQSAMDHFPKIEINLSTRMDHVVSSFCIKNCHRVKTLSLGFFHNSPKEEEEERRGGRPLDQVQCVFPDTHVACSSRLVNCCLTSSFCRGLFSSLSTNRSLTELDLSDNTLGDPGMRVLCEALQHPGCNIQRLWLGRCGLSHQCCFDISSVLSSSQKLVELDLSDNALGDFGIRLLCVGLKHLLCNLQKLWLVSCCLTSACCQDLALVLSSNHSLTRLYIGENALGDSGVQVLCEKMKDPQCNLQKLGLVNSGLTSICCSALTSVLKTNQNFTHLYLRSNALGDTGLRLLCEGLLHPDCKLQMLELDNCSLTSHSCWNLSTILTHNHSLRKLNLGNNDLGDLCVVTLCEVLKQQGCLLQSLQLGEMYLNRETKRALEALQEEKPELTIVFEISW

CN(C)Cc1ccc(S(=O)(=O)NC(=O)Nc2c3c(cc4c2CCC4)CCC3)cc1
Activity (THP-1 [1]): inactive | Activity (Mus musculus [2]): Active | Drug uptake [3]: Active | Drug uptake [4]: Active | Activity [5]: Non-Toxic | Activity (Mus musculus [6]): Active | Activity (Mus musculus [7]): Active | Drug uptake [8]: Active | Activity (Mus musculus [9]): Active | Drug uptake [10]: Active | Activity (THP-1 [11]): inactive | Activity (Mus musculus [12]): Active | Activity (L02): Non-Toxic | half-life [13]: 4.01 h | Activity (Mus musculus [14]): Active | inhibition [15]: Active | MRT inf [16]: 5.3 h | Activity (J774.A1 [17]): inactive | Vd [18]: 0.226 L/kg | Activity [19]: Non-Toxic | inhibition [20]: inactive | Activity (J774.A1 [21]): inactive | Activity [22]: Non-Toxic | inhibition [23]: Dose-Dependent Effect | Activity (Hepatocyte): Non-Toxic | Activity [24]: Non-Toxic | Activity [25]: Non-Toxic | MRT inf [26]: 4.79 h | Activity (Mus musculus [27]): Active
